From article PMC8745332, “Synthesis, Molecular Docking and Biological Characterization of Pyrazine Linked 2-Aminobenzamides as New Class I Selective Histone Deacetylase (HDAC) Inhibitors with Anti-Leukemic Activity” (International Journal of Molecular Sciences, 2021)

Tests used:
[1] = target: T1, human HDAC8 (Homo sapiens, UniProt Q9BY41); assay: HDAC8 homogenous fluorescence assay with ZMAL substrate; format: biochemical; conditions: read-out: HDAC8 (% Inhib.)
T1 construct: made in house
T1 sequence (Q9BY41 1-377): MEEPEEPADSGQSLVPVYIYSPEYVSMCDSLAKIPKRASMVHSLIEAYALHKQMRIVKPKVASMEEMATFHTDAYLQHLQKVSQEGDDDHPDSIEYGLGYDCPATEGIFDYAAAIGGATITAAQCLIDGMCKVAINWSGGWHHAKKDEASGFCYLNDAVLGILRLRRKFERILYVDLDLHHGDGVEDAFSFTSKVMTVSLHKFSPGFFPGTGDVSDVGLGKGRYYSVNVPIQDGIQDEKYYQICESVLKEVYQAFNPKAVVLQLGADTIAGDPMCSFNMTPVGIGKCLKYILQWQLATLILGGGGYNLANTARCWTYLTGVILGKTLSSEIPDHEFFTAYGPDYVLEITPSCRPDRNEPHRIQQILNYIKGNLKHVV
Experimental: (§1) Recombinant human HDAC1, HDAC2, and HDAC3/NCOR1 were purchased from ENZO Life Sciences AG (Lausen, CH). Recombinant human HDAC 4, HDAC5, HDAC7, HDAC9 and HDAC11 were produced by Barinka lab in Prague, as described before. Recombinant human HDAC8 was produced by Romier et al. (IGBMC, Univ. Strasbourg), as described in [55].
Fluorescence intensity was measured at an excitation wavelength of 390 nm and an emission wavelength of 460 nm in a microtiter plate reader (BMG Polarstar).

[2] = in vitro; conditions: human, HEK293 cells
Experimental: The cells were incubated for 48 h with the HDACi at a concentration of 50 µM, and cell viability was determined by the Alamar Blue assay.
To determine the cytotoxicity of the developed compounds on the human epithelial kidney, cell line HEK293 was used. HEK293 cells (DSMZ Braunschweig, ACC305) were incubated at 37 °C in a humidified incubator with 5% CO2 in Dulbecco’s Modified Eagle Medium (DMEM) supplemented with 10% FCS and 5 mM glutamine. Cells were seeded out at 1.5 x 10^3 cells per well in a 96-well cell culture plate (TPP, Switzerland). The compounds to be tested were added immediately to the medium at 50 µM. After 24 h, Alamar Blue reagent (Invitrogen, CA) was added according to the manufacturer’s instructions and incubated again for 21 h before samples were analyzed. Detection of viable cells which convert the resazurine reagent into the highly fluorescent resorufin was performed by using a FLUOstarOPTIMA microplate reader (BMG Labtec) with the following filter set: Ex 530 nm/Em 590 nm. Measurements were performed in triplicate and data are means with standard deviation <12%.

[3] = target: T2, human HDAC1 (Homo sapiens, UniProt Q13547); assay: In vitro HDAC1 inhibition assay, fluorogenic p53 peptide Ac-RHKK(Acetyl)-AMC; format: biochemical; conditions: for IC50: 10 nM HDAC1, 20 µM substrate, 90 min, 37 °C; for inhibition at 2 µM: read-out: HDAC1 % inhibition @ 2 µM; for inhibition at 1 µM: read-out: HDAC1 % inhibition @ 1 µM
T2 construct: purchased ENZO Life Sciences AG (Lausen, CH)
Experimental: as §1
(§2) The in vitro testing on recombinant HDACs 1-3 were performed with a fluorogenic peptide derived from p53 (Ac-RHKK(Acetyl)-AMC). The measurements were performed in an assay buffer (50 mM Hepes, 150 mM NaCl, 5 mM MgCl2, 1 mM TCEP and 0.2 mg/mL BSA, pH 7.4 adjusted with NaOH) at 37 °C. Inhibitors at different concentrations were incubated with 10 nM HDAC1, 3 nM HDAC2 or 3 nM HDAC3 (final concentration) for at least 5 min. The reaction was started with the addition of the fluorogenic substrate (20 µM final concentration) and incubated for 30 min for HDAC2 and HDAC3 and 90 min for HDAC1. The reaction was stopped with a solution of 1 mg/mL trypsin and 20 µM SAHA in 1 mM HCl and incubated for 1 h at 37 °C. […] The received fluorescence intensities were normalized with uninhibited reaction as 100% and the reaction without enzyme as 0%. A nonlinear regression analysis was done to determine the IC50 value.

[4] = target: T3, human HDAC3/NCOR1 (Homo sapiens, UniProt O15379); assay: In vitro HDAC3 inhibition assay, fluorogenic p53 peptide Ac-RHKK(Acetyl)-AMC; format: biochemical; conditions: for IC50: 3 nM HDAC3, 20 µM substrate, 30 min, 37 °C; for inhibition at 2 µM: read-out: HDAC3 % inhibition @ 2 µM; for inhibition at 1 µM: read-out: HDAC3 % inhibition @ 1 µM
T3 construct: purchased ENZO Life Sciences AG (Lausen, CH)
Experimental: as §1, §2

[5] = target: T4, human HDAC2 (Homo sapiens, UniProt Q92769); assay: In vitro HDAC2 inhibition assay, fluorogenic p53 peptide Ac-RHKK(Acetyl)-AMC; format: biochemical; conditions: for IC50: 3 nM HDAC2, 20 µM substrate, 30 min, 37 °C; for inhibition at 2 µM: read-out: HDAC2 % inhibition @ 2 µM; for inhibition at 1 µM: read-out: HDAC2 % inhibition @ 1 µM
T4 construct: purchased ENZO Life Sciences AG (Lausen, CH)
Experimental: as §1, §2

T4 sequence (Q92769 whole entry): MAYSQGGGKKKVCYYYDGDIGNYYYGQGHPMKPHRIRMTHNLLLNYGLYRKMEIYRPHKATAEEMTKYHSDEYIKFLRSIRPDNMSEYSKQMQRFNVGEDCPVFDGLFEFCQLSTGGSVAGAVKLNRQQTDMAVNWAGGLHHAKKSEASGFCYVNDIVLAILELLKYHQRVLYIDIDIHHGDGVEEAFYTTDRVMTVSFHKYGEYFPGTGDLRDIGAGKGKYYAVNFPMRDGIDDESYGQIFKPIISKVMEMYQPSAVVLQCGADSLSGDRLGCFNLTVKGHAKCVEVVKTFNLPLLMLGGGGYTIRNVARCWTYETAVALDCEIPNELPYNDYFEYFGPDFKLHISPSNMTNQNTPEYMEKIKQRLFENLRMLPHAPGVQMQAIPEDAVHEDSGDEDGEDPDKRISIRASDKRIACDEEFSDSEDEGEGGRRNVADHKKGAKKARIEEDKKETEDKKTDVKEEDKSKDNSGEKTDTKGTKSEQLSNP
T3 sequence (O15379 whole entry): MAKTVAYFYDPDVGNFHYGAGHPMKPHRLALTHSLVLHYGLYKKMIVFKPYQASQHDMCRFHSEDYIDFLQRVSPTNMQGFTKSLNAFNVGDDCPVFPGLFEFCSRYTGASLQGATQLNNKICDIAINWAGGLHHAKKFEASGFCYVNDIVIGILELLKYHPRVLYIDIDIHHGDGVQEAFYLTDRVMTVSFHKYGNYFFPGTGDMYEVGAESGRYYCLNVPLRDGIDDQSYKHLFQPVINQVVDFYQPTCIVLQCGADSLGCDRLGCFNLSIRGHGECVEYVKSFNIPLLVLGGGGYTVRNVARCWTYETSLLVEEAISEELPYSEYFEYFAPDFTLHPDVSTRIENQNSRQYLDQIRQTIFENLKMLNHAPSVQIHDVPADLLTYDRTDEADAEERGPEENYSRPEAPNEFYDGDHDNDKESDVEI
T3 sequence (O75376 395-489 partner limits assumed): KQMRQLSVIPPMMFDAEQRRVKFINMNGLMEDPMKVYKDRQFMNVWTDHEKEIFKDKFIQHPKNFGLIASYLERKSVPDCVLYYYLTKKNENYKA
T2 sequence (Q13547 whole entry): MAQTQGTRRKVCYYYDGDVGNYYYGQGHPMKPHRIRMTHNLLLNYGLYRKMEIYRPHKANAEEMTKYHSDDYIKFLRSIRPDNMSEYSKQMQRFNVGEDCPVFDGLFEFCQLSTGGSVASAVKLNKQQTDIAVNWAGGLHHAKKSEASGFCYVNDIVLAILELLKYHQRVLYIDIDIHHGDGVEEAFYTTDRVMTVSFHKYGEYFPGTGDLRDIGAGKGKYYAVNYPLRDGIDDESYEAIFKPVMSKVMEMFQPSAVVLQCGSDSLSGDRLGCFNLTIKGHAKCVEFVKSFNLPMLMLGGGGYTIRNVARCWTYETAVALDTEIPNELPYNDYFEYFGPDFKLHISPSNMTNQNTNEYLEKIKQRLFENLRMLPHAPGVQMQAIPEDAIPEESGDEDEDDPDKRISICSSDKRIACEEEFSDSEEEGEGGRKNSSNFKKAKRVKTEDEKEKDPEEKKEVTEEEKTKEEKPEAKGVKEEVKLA

inhibition at 1 µM [1] | IC50 [3] | IC50 [4] | IC50 [5] | inhibition at 2 µM [3] | inhibition at 2 µM [4] | inhibition at 2 µM [5] | inhibition at 1 µM [3] | inhibition at 1 µM [4] | inhibition at 1 µM [5] | Compound | viability at 48 h, 50 µM [2]
– | – | 8.7 ± 0.4 µM | – | – | – | – | 0% | – | 0% | Nc1cc(Cl)ccc1NC(=O)c1cnc(N2CCNCC2)cn1 [25a, N-(2-amino-4-chlorophenyl)-5-(piperazin-1-yl)pyrazine-2-carboxamide] | –
– | 4.3 ± 0.3 µM | 1.6 ± 0.1 µM | 4.2 ± 0.1 µM | – | – | – | – | – | – | Nc1cc(F)c(F)cc1NC(=O)c1cnc(N2CCNCC2)cn1 [25b, N-(2-amino-4,5-difluorophenyl)-5-(piperazin-1-yl)pyrazine-2-carboxamide] | 83.7%
– | – | – | – | – | – | – | 0% | 0% | 0% | Nc1ccc(C(F)(F)F)cc1NC(=O)c1cnc(N2CCNCC2)cn1 [27a, N-(2-amino-5-(trifluoromethyl)phenyl)-5-(piperazin-1-yl)pyrazine-2-carboxamide] | –
– | – | – | – | – | – | – | 0% | 0% | 0% | Cc1ccc(NC(=O)c2cnc(N3CCNCC3)cn2)c(N)c1 [27b, N-(2-amino-4-methylphenyl)-5-(piperazin-1-yl)pyrazine-2-carboxamide] | –
– | 20 ± 1 µM | 14 ± 1 µM | 14 ± 2 µM | – | – | – | – | – | – | COc1ccc(NC(=O)c2cnc(N3CCNCC3)cn2)c(N)c1 [27c, N-(2-amino-4-methoxyphenyl)-5-(piperazin-1-yl)pyrazine-2-carboxamide] | –
– | 0.11 ± 0.01 µM | 4.4 ± 0.1 µM | 0.18 ± 0.06 µM | – | – | – | – | – | – | CN1CCN(c2cnc(C(=O)Nc3cc(-c4ccsc4)ccc3N)cn2)CC1 [29a, N-(2-amino-5-(thiophen-3-yl)phenyl)-5-(4-methylpiperazin-1-yl)pyrazine-2-carboxamide] | 65.8%
– | 0.16 ± 0.03 µM | 6.7 ± 0.5 µM | 0.34 ± 0.01 µM | – | – | – | – | – | – | Nc1ccc(-c2ccc(F)cc2)cc1NC(=O)c1cnc(N2CCNCC2)cn1 [29c, N-(4-amino-4’-fluoro-[1,1’-biphenyl]-3-yl)-5-(piperazin-1-yl)pyrazine-2-carbox-amide] | 2.2%
– | 0.18 ± 0.01 µM | 12 ± 1 µM | 0.26 ± 0.07 µM | – | – | – | – | – | – | CN1CCN(c2cnc(C(=O)Nc3cc(-c4ccccc4F)ccc3N)cn2)CC1 [29d, N-(4-amino-2’-fluoro-[1,1’-biphenyl]-3-yl)-5-(4-methylpiperazin-1-yl)pyrazine-2-carboxamide] | 54%

More lines, now with the values behind:

Compound | inhibition at 1 µM [1] | IC50 [3] | IC50 [4] | IC50 [5] | inhibition at 2 µM [3] | inhibition at 2 µM [4] | inhibition at 2 µM [5] | inhibition at 1 µM [3] | inhibition at 1 µM [4] | inhibition at 1 µM [5] | viability at 48 h, 50 µM [2]
Nc1ccccc1NC(=O)c1cnc(N2CCN(CCc3ccccc3)CC2)cn1 [19a, N-(2-Aminophenyl)-5-(4-phenethylpiperazin-1-yl)pyrazine-2-carboxamide] | 0% | 0.51 ± 0.05 µM | 1.12 ± 0.07 µM | 0.8 ± 0.07 µM | – | – | – | – | – | – | 73.1%
Nc1ccccc1NC(=O)c1cnc(N2CCN(CCc3ccc(Cl)cc3)CC2)cn1 [19b, N-(2-Aminophenyl)-5-(4-(4-chlorophenethyl)piperazin-1-yl)pyrazine-2-carboxamide] | 3.4% | – | – | – | 25.8% | 65.2% | 30.3% | – | – | – | 78.6%
Nc1ccccc1NC(=O)c1cnc(N2CCN(Cc3ccccn3)CC2)nc1 [19c, N-(2-aminophenyl)-2-(4-(pyridin-2-yl-methyl)piperazin-1-yl)pyrimidine-5-carboxamide] | 0% | – | – | – | 33.9% | 26.8% | 20.1% | – | – | – | 78.7%
Nc1ccccc1NC(=O)c1cnc(N2CCN(Cc3ccccn3)CC2)cn1 [19d, N-(2-Aminophenyl)-5-(4-(pyridin-2-ylmethyl)piperazin-1-yl)pyrazine-2-carboxamide] | 0% | 0.52 ± 0.07 µM | 1.06 ± 0.04 µM | 1.43 ± 0.08 µM | – | – | – | – | – | – | 67.7%
Nc1ccccc1NC(=O)c1cnc(N2CCN(Cc3csc4ccccc34)CC2)cn1 [19e, N-(2-Aminophenyl)-5-(4-(benzo[b]thiophen-3-ylmethyl)piperazin-1-yl)pyrazine-2-carboxamide] | 0% | 0.21 ± 0.07 µM | 0.84 ± 0.03 µM | 0.71 ± 0.04 µM | – | – | – | – | – | – | 50.9%
Nc1ccccc1NC(=O)c1cnc(N2CCN(CCc3c[nH]c4ccccc34)CC2)cn1 [19g, 5-(4-(2-(1.H-indol-3-yl)ethyl)piperazin-1-yl)-N-(2-aminophenyl)pyrazine-2-carboxamide] | 0% | 0.31 ± 0.03 µM | 0.49 ± 0.06 µM | 0.96 ± 0.05 µM | – | – | – | – | – | – | 71.8%
Nc1cc(F)c(F)cc1NC(=O)c1cnc(N2CCN(CCc3c[nH]c4ccccc34)CC2)cn1 [19h] | – | 0.81 ± 0.07 µM | 0.57 ± 0.02 µM | 0.74 ± 0.03 µM | – | – | – | – | – | – | 54.5%
Nc1cc(Cl)ccc1NC(=O)c1cnc(N2CCN(CCc3c[nH]c4ccccc34)CC2)cn1 [19i, 5-(4-(2-(1H-indol-3-yl)ethyl)piperazin-1-yl)-N-(2-amino-4-chlorophenyl)pyrazine-2-carboxamide] | – | 3 ± 0.2 µM | 1.9 ± 0.1 µM | 2.7 ± 0.2 µM | – | – | – | – | – | – | 47.5%
Cn1cc(CN2CCN(c3ncc(C(=O)Nc4ccccc4N)cn3)CC2)c2ccccc21 [19j, N-(2-aminophenyl)-2-(4-((1-methyl-1H-indol-3-yl)methyl)piperazin-1-yl)pyrimidine-5-carboxamide] | 0% | 0.45 ± 0.06 µM | 1.75 ± 0.06 µM | 0.93 ± 0.04 µM | – | – | – | – | – | – | 62.5%
Cn1cc(CN2CCN(c3cnc(C(=O)Nc4ccccc4N)cn3)CC2)c2ccccc21 [19k, N-(2-aminophenyl)-5-(4-((1-methyl-1H-indol-3-yl)methyl)piperazin-1-yl)pyrazine-2-carboxamide] | 0% | 0.14 ± 0.02 µM | 0.59 ± 0.03 µM | 0.56 ± 0.04 µM | – | – | – | – | – | – | 71.4%
Cn1cc(CN2CCN(c3cnc(C(=O)Nc4cc(F)c(F)cc4N)cn3)CC2)c2ccccc21 [19l] | – | 0.29 ± 0.03 µM | 0.81 ± 0.05 µM | 0.56 ± 0.02 µM | – | – | – | – | – | – | 20.1%
Cn1cc(CCN2CCN(c3cnc(C(=O)Nc4ccc(F)cc4N)cn3)CC2)c2ccccc21 [19m, N-(2-Amino-4-fluorophenyl)-5-(4-(2-(1-methyl-1H-indol-3-yl)ethyl)piperazin-1-yl)pyrazine-2-carboxamide] | – | 0.4 ± 0.06 µM | 0.4 ± 0.02 µM | 1.48 ± 0.19 µM | – | – | – | – | – | – | 52.5%
CN1CCN(c2ncc(C(=O)Nc3ccccc3N)cn2)CC1 [19n, N-(2-aminophenyl)-2-(4-methylpiperazin-1-yl)pyrimidine-5-carboxamide] | – | – | – | – | – | – | – | 5% | 13% | 7% | –
CN1CCN(c2cnc(C(=O)Nc3ccccc3N)cn2)CC1 [19o, N-(2-aminophenyl)-5-(4-methylpiperazin-1-yl)pyrazine-2-carboxamide] | – | – | – | – | – | – | – | 27% | 30% | 15% | –
Nc1ccc(-c2ccc(F)cc2)cc1NC(=O)c1cnc(N2CCN(CCc3c[nH]c4ccccc34)CC2)cn1 [21b, 5-(4-(2-(1H-indol-3-yl)ethyl)piperazin-1-yl)-N-(4-amino-4’-fluoro-[1,1’-biphenyl]-3-yl)pyrazine-2-carboxamide] | 0% | 0.7 ± 0.08 µM | – | 0.77 ± 0.06 µM | – | – | – | – | 0% | – | 71%
Nc1ccc(-c2ccccc2F)cc1NC(=O)c1cnc(N2CCN(CCc3c[nH]c4ccccc34)CC2)cn1 [21c, 5-(4-(2-(1H-indol-3-yl)ethyl)piperazin-1-yl)-N-(4-amino-2’-fluoro-[1,1’-biphenyl]-3-yl)pyrazine-2-carboxamide] | 0% | 0.76 ± 0.07 µM | 15 ± 1 µM | 0.76 ± 0.04 µM | – | – | – | – | – | – | 72.3%
Cn1cc(CCN2CCN(c3cnc(C(=O)Nc4cc(F)ccc4N)cn3)CC2)c2ccccc21 [23c, N-(2-Amino-5-fluorophenyl)-5-(4-(2-(1-methyl-1H-indol-3-yl)ethyl)piperazin-1-yl)pyrazine-2-carboxamide] | – | 0.33 ± 0.02 µM | 0.59 ± 0.04 µM | 1.37 ± 0.08 µM | – | – | – | – | – | – | 55.7%
